The text below walks through data of ChEMBL document CHEMBL3627697, “Aminopyrazolo[1,5-a]pyrimidines as potential inhibitors of Mycobacterium tuberculosis: Structure activity relationships and ADME characterization” (Bioorg Med Chem, 2015).

Structures are written as SMILES. pIC50: −log10 of the molar value. In brackets after ≈: the same amount, converted by molar mass.

The subject of one series is Mycobacterium tuberculosis. Kind of series: Antimycobacterial activity against Mycobacterium tuberculosis H37Rv in 7H9/ADC/Tween medium measured at day 14 by Alamar Blue assay. In kind it is functional. The conditions noted are these: 336 h.
`Cc1cc(NCc2ccccn2)n2nc(C)c(-c3ccccc3)c2n1`: the MIC99 – broadly, an inhibitory concentration at the 99% level, which refers to growth in some studies and to a panel of isolates in others – came out at 5 µM (≈ 1.65 µg/mL).

The compound `Cc1cc(NCc2nccn2C)n2nc(C)c(-c3ccccc3)c2n1` registered an MIC99 of 5 µM (≈ 1.66 µg/mL).

Compound `Cc1cc(NCc2ccccn2)n2ncc(-c3cccc(Cl)c3)c2n1` returned an MIC99 of 2.5 µM (≈ 0.875 µg/mL).

`Cc1cc(NCc2ccccn2)n2ncc(-c3ccccc3F)c2n1` registered an MIC99 of 2.5 µM (≈ 0.833 µg/mL).

`Cc1cc(NCc2ccc(F)cn2)n2nc(C)c(-c3ccccc3)c2n1` registered an MIC99 of 5 µM (≈ 1.74 µg/mL).

Test system in a further series: not listed separately
As to the kind of experiment: Metabolic stability in mouse liver microsomes assessed as compound remaining at 0.1 uM measured at 30 mins by LC-MS/MS analysis. It counts as ADME. The note with it: read-out: Stability. A general note: Liver microsomes are a subcellular fraction often used to study metabolism.
For the compound `Cc1cc(NCc2ccccn2)n2nc(C)c(-c3ccccc3)c2n1`, the remaining at 0.5 h, 0.1 µM stood at 6.2%.

Take `Cc1cc(NCc2ccc(F)cn2)n2nc(C)c(-c3ccccc3)c2n1`: the remaining at 0.5 h, 0.1 µM came out at 5.3%.

Test system in the next series: not listed separately
Kind of series: Kinetic solubility of the compound at pH 7.4 after 2 hrs by shake flask method-based HPLC-DAD analysis. The conditions noted are these: buffer, read-out: Kinetic_solubility. In kind it is physicochemical.
Consider `Cc1cc(NCc2ccccn2)n2nc(C)c(-c3ccccc3)c2n1`, for which the solubility kinetic at 2 h is less than 5 µM.

Consider `Cc1cc(NCc2nccn2C)n2nc(C)c(-c3ccccc3)c2n1`, for which the solubility kinetic at 2 h was 26.9 µM (≈ 8.94 µg/mL).

As to `Cc1cc(NCc2ccccn2)n2ncc(-c3cccc(Cl)c3)c2n1`, the solubility kinetic at 2 h was less than 5 µM.

As for `Cc1cc(NCc2ccccn2)n2ncc(-c3ccccc3F)c2n1`, the solubility kinetic at 2 h was 5 µM (≈ 1.67 µg/mL).

As to `Cc1cc(NCc2ccc(F)cn2)n2nc(C)c(-c3ccccc3)c2n1`, the solubility kinetic at 2 h was less than 5 µM.

A further series concerns CHO. Kind of series: Cytotoxicity against CHO cells assessed as cell viability by MTT assay. It counts as cell-based. The note with it: Cricetulus griseus. A general note: Tetrazolium dyes change colour on reduction, which living cells bring about.
In the case of `Cc1cc(NCc2ccccn2)n2nc(C)c(-c3ccccc3)c2n1`, the pIC50 (in general, −log10 of the IC50, conventionally taken in molar units) is 4.47.

For `Cc1cc(NCc2nccn2C)n2nc(C)c(-c3ccccc3)c2n1`, the pIC50 was more than 5.05.

For the compound `Cc1cc(NCc2ccccn2)n2ncc(-c3cccc(Cl)c3)c2n1`, the pIC50 is 5.42.

Turning to `Cc1cc(NCc2ccccn2)n2ncc(-c3ccccc3F)c2n1`, the pIC50 is 5.26.

Regarding `Cc1cc(NCc2ccc(F)cn2)n2nc(C)c(-c3ccccc3)c2n1`, the pIC50 is 4.66.

Test system in a further series: not listed separately
As to the kind of experiment: Metabolic stability in rat liver microsomes assessed as compound remaining at 0.1 uM measured at 30 mins by LC-MS/MS analysis. The note with it: read-out: Stability. It counts as ADME.
Turning to `Cc1cc(NCc2ccccn2)n2nc(C)c(-c3ccccc3)c2n1`, the remaining at 0.5 h, 0.1 µM came to 39%.

`Cc1cc(NCc2ccc(F)cn2)n2nc(C)c(-c3ccccc3)c2n1`: the remaining at 0.5 h, 0.1 µM was 45.5%.

The subject of a further series is Mycobacterium tuberculosis. Kind of series: Antimycobacterial activity against Mycobacterium tuberculosis H37Rv in GAST medium with low Fe level measured at day 14 by Alamar Blue assay. In kind it is functional. The conditions noted are these: 336 h. For orientation: Resazurin is reduced to fluorescent resorufin, in cell work by metabolically active cells.
As to `Cc1cc(NCc2ccccn2)n2nc(C)c(-c3ccccc3)c2n1`, the MIC99 is more than 160 µM.

`Cc1cc(NCc2nccn2C)n2nc(C)c(-c3ccccc3)c2n1` registered an MIC99 of 20 µM (≈ 6.65 µg/mL).

`Cc1cc(NCc2ccccn2)n2ncc(-c3cccc(Cl)c3)c2n1` came in with an MIC99 of more than 160 µM.

`Cc1cc(NCc2ccccn2)n2ncc(-c3ccccc3F)c2n1` gave an MIC99 of more than 160 µM.

As to `Cc1cc(NCc2ccc(F)cn2)n2nc(C)c(-c3ccccc3)c2n1`, the MIC99 is more than 160 µM.

The next series deals with Mycobacterium tuberculosis. Kind of series: Antimycobacterial activity against Mycobacterium tuberculosis H37Rv in GAST-Fe medium measured at day 14 by Alamar Blue assay. It counts as functional. The note with it: 336 h.
As to `Cc1cc(NCc2ccccn2)n2nc(C)c(-c3ccccc3)c2n1`, the MIC99 is more than 160 µM.

In the case of `Cc1cc(NCc2nccn2C)n2nc(C)c(-c3ccccc3)c2n1`, the MIC99 worked out at 37 µM (≈ 12.3 µg/mL).

With `Cc1cc(NCc2ccccn2)n2ncc(-c3cccc(Cl)c3)c2n1`, the MIC99 is more than 160 µM.

Regarding `Cc1cc(NCc2ccccn2)n2ncc(-c3ccccc3F)c2n1`, the MIC99 is more than 160 µM.

As for `Cc1cc(NCc2ccc(F)cn2)n2nc(C)c(-c3ccccc3)c2n1`, the MIC99 is 20 µM (≈ 6.95 µg/mL).

Test system in another series: not listed separately
As to the kind of experiment: Metabolic stability in human liver microsomes assessed as compound remaining at 0.1 uM measured at 30 mins by LC-MS/MS analysis. In kind it is ADME. The conditions noted are these: read-out: Stability.
Take `Cc1cc(NCc2ccccn2)n2nc(C)c(-c3ccccc3)c2n1`: the remaining at 0.5 h, 0.1 µM amounted to 51.9%.

For `Cc1cc(NCc2ccc(F)cn2)n2nc(C)c(-c3ccccc3)c2n1`, the remaining at 0.5 h, 0.1 µM amounted to 31.4%.
